We go through 58 molecules from the METLIN SMRT retention time set (Domingo-Almenara et al. 2019).

The data set is described as follows: gradient 5% acetonitrile 3 min, to 50% in 2 min, to 85% in 15 min, held 3 min, 100 µL/min. To be noted: column: Zorbax Extend-C18 2.1 x 50 mm; eluents: water / acetonitrile, 0.1% formic acid. The method in brief:
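Standards, all pure, were combined into mixtures of ~100 molecules and run at 100 μL/min on a Zorbax Extend-C18 column (2.1 × 50 mm, 1.8 μm) with water and acetonitrile, each containing 0.1% formic acid. A coupled quadrupole time-of-flight mass spectrometer operated in positive and negative ionization mode. Retention time values come from computationally picked adduct peaks, each inspected manually.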
Molecule `CCc1cccc(NC(=O)N2CCCC2c2nc(-c3ccc(OC)cc3)no2)c1` (stereo not drawn) came in with an RP-LC retention time of 925 s. Next, `Cc1ccc(Cl)cc1N1CCN(C(=O)CN2C(=O)C3C4C=CC(C4)C3C2=O)CC1` (stereo not drawn): 977 s; `O=C(NCCc1csc(C2CCCN(C(=O)C3CCCCC3)C2)n1)C1CC1` (stereo not drawn): 760 s; `CCc1cc(=O)n(CC(=O)Nc2ccccc2C)c(N)n1`: 639 s. Next, `Cc1ccc(Nc2c(-c3c(F)cccc3Cl)nc3ccc(C)cn23)cc1`: 773 s; `CC(=O)N1CCc2cc(N3CC(C(=O)Nc4ccc(F)c(Cl)c4)CC3=O)ccc21` (stereo not drawn): 751 s; `COc1ccc(OC)c(NC(=O)N2CCC3(CC2)N=C(c2ccc(Cl)cc2)C(=O)N3)c1`: 922 s. Next, `CCCCNC(=O)c1nc(Nc2ccc(C)cc2)c2ccccc2n1`: 831 s.

The molecule `COc1cccc(-c2nc(N3CCSCC3)ncc2C(=O)O)c1` returned an RP-LC retention time of 857 s. Next, `CCOc1ccc(CNC(=O)c2c(C)sc3ccn(C)c(=O)c23)cc1`: 786 s; `CC1CCN(C(=O)c2cn(-c3cc(-c4nc(C(C)(C)C)no4)ccn3)cn2)CC1`: 1060 s; `COc1ccc(NC(=O)N2[C@H]3CC[C@@H]2c2cnc(C)nc2C3)c(C)c1`: 645 s. Next, `COc1cccc(-n2c(N3CCCC(C(=O)Nc4ccc(F)cc4)C3)nc3ccsc3c2=O)c1` (stereo not drawn): 932 s; `COC(=O)c1cc(OC)c(OC)cc1NC(=O)NCCc1c[nH]c2ccccc12`: 876 s; `O=C1CCN(S(=O)(=O)c2cccc3nsnc23)CCCCCCN1`: 724 s. The molecule `Cc1cccc(CNC2=NCCNC23CCN(S(=O)(=O)c2cc(C)cc(C)c2)CC3)c1` yielded an RP-LC retention time of 787 s.

As for `Cc1cc(-c2nnc(-c3ccccc3)o2)c(C)n1CC(=O)Nc1cc(F)ccc1F`, the RP-LC retention time stood at 994 s. Next, `O=C(CN1C(=O)CCc2cc(Br)ccc21)NCc1ccccc1`: 784 s; `CCNC(=O)NS(=O)(=O)c1sc(CC(C)C)cc1-c1ccc(Cn2c(-c3ccccc3)nc(OC)c2C=O)cc1`: 1280 s; `O=C(NC1CCN(c2cc(-c3cccs3)[nH]n2)C1)c1cccc(Cl)c1` (stereo not drawn): 719 s. `COc1ccc(-c2nc3ncc4c(=O)n(CCc5c[nH]c6ccccc56)ccc4n3n2)cc1` returned an RP-LC retention time of 940 s. Next, `Cc1ccnn1-c1ccc(SCC(=O)Nc2ccccc2F)nn1`: 869 s; `COC(=O)C(=Cc1ccccc1[N+](=O)[O-])C(=O)OC`: 883 s; `O=C1CN(Cc2ccccc2)C(=O)C(Cc2ccccc2)N1` (stereo not drawn): 656 s. Next, `CCc1nc(-c2cccc(-c3noc(COc4ccc(F)cc4)n3)c2)cs1`: 1290 s; `COc1ccc(S(=O)(=O)Nc2c(C)n(C)n(-c3ccccc3)c2=O)cc1[N+](=O)[O-]`: 699 s; `CC(C)CCNC(=O)N1CC(c2nc(-c3cccnc3)no2)C2(CCOCC2)C1` (stereo not drawn): 725 s. Next, `C=C1CC(COc2cc(=O)oc3ccccc23)(c2ccccc2)OC1=O` (stereo not drawn): 885 s; `COc1ccc(-c2nc(-c3nnn(Cc4ccccc4)c3C)no2)c(OC)c1`: 990 s. `O=C(CN1C(=O)C2CCCCN2c2ccc(C(=O)N3CCCC3)cc21)Nc1ccncc1` (stereo not drawn) displayed an RP-LC retention time of 622 s. Next, `CCc1cc(=O)n(CC(=O)NCc2ccc(C)cc2)c(N)n1`: 610 s; `Cc1ccc(N2N=NC3C(=O)N(c4cccc(Cl)c4)C(=O)C32)cc1F` (stereo not drawn): 1060 s. Next, `Nc1nc(-c2ccc(O)cc2)cs1`: 547 s; `Cc1ccc(-c2cc3c(=O)n(Cc4nc(-c5cccc(Br)c5)no4)ncn3n2)c(C)c1`: 1320 s. Next, `COc1ccc(NS(=O)(=O)c2sc3ccc(Cl)cc3c2C)cc1N1CCNCC1`: 781 s; `CCCn1cc(C(=O)Nc2cccc(C)c2)c(S(=O)(=O)N2CCSCC2)n1`: 1120 s; `O=C(NCc1cccc(F)c1)N1C[C@@H]2C[C@H](NS(=O)(=O)c3cccnc3)[C@H]1C2`: 688 s. In turn, `CCOc1cccc(C2c3[nH]c4ccccc4c3CCN2C(=O)c2ccncc2)c1` (stereo not drawn) came in with an RP-LC retention time of 959 s. Molecule `CCCN(CCC)CCNC(=O)C1CCC(=O)N(c2ccc(OC)cc2)C1c1ccc(F)cc1` (stereo not drawn) registered an RP-LC retention time of 649 s. Molecule `CCNC(=O)Cn1c(=O)c2cnc(-c3ccccc3)nc2n(CC)c1=O` came in with an RP-LC retention time of 802 s. Next, `CCOC(=O)C1=C(CN2CCC(C(=O)OCC)CC2)NC(=O)NC1c1ccc(F)cc1` (stereo not drawn): 650 s; `O=c1c2nc(-c3ccc(Br)cc3)cn2ccn1-c1cccc(F)c1`: 898 s. Next, `O=C(NCc1ccc(F)cc1)C1CCN(c2cncnc2N2CCCC2)CC1`: 659 s. Next, `COc1ccc2c(c1)C1(CCN(S(=O)(=O)c3ccc(OC)c(OC)c3)C1)C(=O)N2` (stereo not drawn): 757 s; `COCCCN(Cc1ccco1)c1nc(-c2ccc(OC)cc2)nc2ccccc12`: 823 s; `COCCNS(=O)(=O)c1cc(-c2nc(CC(C)C)cs2)cs1`: 1010 s.

With `Cc1cccc(N2CCN(c3ccc4cc(S(=O)(=O)N5CCCCC5)ccc4n3)CC2)c1C`, the RP-LC retention time was 1320 s. Next, `CCN(CC)S(=O)(=O)c1ccc2nc(N3CCN(c4ccccn4)CC3)cnc2c1`: 675 s; `Cc1ccc(Cn2c(=O)n(CCNC(=O)C3CCCO3)c3ncccc32)cc1` (stereo not drawn): 726 s; `CC1CCN(S(=O)(=O)c2ccc(-c3nnc(C(=O)NC4CCCCCC4)o3)cc2)CC1`: 1170 s. Next, `CCCn1cc(S(=O)(=O)Nc2cc(OC)cc(OC)c2)c2cccnc21`: 860 s. Next, `Cc1nn(-c2ccccc2)c(C)c1S(=O)(=O)N1CCC(C(=O)NC(C)(C)C)CC1`: 894 s.

Molecule `CCOC(=O)N1CCC2(CC1)OC(=O)C(C)=C2C(=O)Nc1cccc(OC)c1` registered an RP-LC retention time of 845 s. Next, `O=C(NCc1csc(C2CCCN(C(=O)C3CCCC3)C2)n1)C1CC1` (stereo not drawn): 671 s. The molecule `CCN(CC)C(=O)c1cc2c(s1)CCC(C(=O)NCc1ccncc1)C2` (stereo not drawn) yielded an RP-LC retention time of 557 s. Next, `Cc1nc(-c2ccc3c(c2)n(CC(=O)NC2CCCCCCC2)c(=O)n3C(C)C)no1`: 945 s. Next, `Cc1cc(C)cc(C(=O)N2CCCC(C(=O)NCCC3=CCCCC3)C2)c1` (stereo not drawn): 980 s. `COCCn1cnc2c(-c3ccccc3)cn(CC(=O)NCc3ccc4c(c3)OCO4)c2c1=O`: the RP-LC retention time came out at 828 s.
